The record followed here is the Deep4Chem optical property database.

The nature of this data set: solvent given as SMILES.

In turn, `COc1ccc(-c2cc(-c3ccc(OC)cc3)c3c(N)nc(N4CCCC4)c(C#N)c3n2)cc1` displayed an emission maximum (in CC#N) of 516 nm; an emission maximum (in CC(C)=O) of 513 nm; an emission maximum (in CC(C)O) of 507 nm; an emission maximum (in CO) of 515 nm; an emission maximum (in ClC(Cl)Cl) of 500 nm; an emission maximum (in ClCCl) of 506 nm. Further, the emission maximum (in c1ccccc1) worked out at 502 nm.

In the case of `CSc1ccc(/C=C/c2cnc3ccccc3n2)cc1`, the emission maximum is, setting by setting: (in C1CCOC1) 467 nm; (in CC#N) 499 nm; (in CCCCCCC) 426 nm; (in CS(C)=O) 513 nm; (in ClCCl) 475 nm.

As to `CCC1=C(C)C2=C(c3ccc(-c4c5ccccc5c(-c5ccccc5)c5ccccc45)cc3)c3c(C)c(CC)c(C)n3[B-](F)(F)[N+]2=C1C`, the emission maximum is recorded as 534 nm (in CC#N); 536 nm (in CCCCCC); 537 nm (in CCO); 537 nm (in CN(C)C=O); 539 nm (in Cc1ccccc1); 540 nm (in ClCCl).

With `CCOC(=O)/N=c1/oc2cc(OC)cc(OC)c2cc1C#N`, the emission maximum (in ClCCl) turned out to be 442 nm.

As to `CC(C)(C)c1ccc(-c2cc3c(-c4ccc(C(C)(C)C)cc4)c4cccc5c(-c6ccc(C(C)(C)C)cc6)cc6c(-c7ccc(C(C)(C)C)cc7)c7cccc2c7c3c6c54)cc1`, the emission maximum by setting is: (in C1CCCCC1) 463 nm; (in CC#N) 464 nm; (in CO) 462 nm; (in Cc1ccccc1) 467 nm; (in ClCCl) 467 nm.

Compound `CCC1(CC)c2cc(-c3cccs3)ccc2-c2c1c1c(c3c2C(CC)(CC)c2cc(-c4cccs4)ccc2-3)C(CC)(CC)c2cc(-c3cccs3)ccc2-1` returned an emission maximum (in C1CCOC1) of 385 nm.

For `CC(C)c1cccc(C(C)C)c1N1C(=O)c2cc(Oc3ccc(C(C)(C)C)cc3)c3c4c(Oc5ccc(C(C)(C)C)cc5)cc5c6c(cc(Oc7ccc(C(C)(C)C)cc7)c(c7c(Oc8ccc(C(C)(C)C)cc8)cc(c2c37)C1=O)c64)C(=O)N(c1c(C(C)C)cccc1C(C)C)C5=O`, under “in Cc1ccccc1”, the emission maximum amounted to 611 nm.

`CC(C)(C)c1ccc2oc3nc4oc5ccc(-n6c7ccccc7c7cc(-n8c9ccccc9c9ccccc98)ccc76)cc5c4cc3c2c1` came in with an emission maximum (in ClC(Cl)Cl) of 446 nm.

Compound `c1cncc(-c2ccc(-c3c4ccc(-c5cccnc5)cc4c(-c4ccc(-c5cccnc5)cc4)c4ccc(-c5cccnc5)cc34)cc2)c1` registered an emission maximum (in ClCCl) of 443 nm.

As to `COc1ccc(N(c2ccc(OC)cc2)c2cc(N(c3ccc(OC)cc3)c3ccc(OC)cc3)c3ccc4cc(C(C)(C)C)cc5ccc2c3c54)cc1`, the emission maximum (in ClCCl) is 525 nm.

`CCOC(=O)/N=c1/oc2cc(N(CC)CC)ccc2cc1C#N` gave an emission maximum (in ClCCl) of 486 nm.

`CN1C(=CC2=C([O-])C(=Cc3oc4ccccc4[n+]3C)C2=C(C#N)C#N)C(C)(C)c2ccccc21` registered an emission maximum (in ClC(Cl)Cl) of 673 nm.

Regarding `c1ccc(-c2ccnc(-c3ccccc3)n2)cc1`, the emission maximum (in ClC(Cl)Cl) worked out at 311 nm.

Turning to `CCCCC(CC)Cn1c2cc(C#N)ccc2c2ccc(C#Cc3ccc4ccc5ccc(C#Cc6ccc7c8ccc(C#N)cc8n(CC(CC)CCCC)c7c6)c6ccc3c4c56)cc21` (stereo unspecified), the emission maximum (in ClCCl) was found to be 458 nm.

Under “in ClCCl”, `c1ccc(N2N=C(c3c4ccccc4cc4ccccc34)CC2c2ccc3ccc4cccc5ccc2c3c45)cc1` (stereo unspecified) showed an emission maximum of 509 nm.

`CN(C)c1ccc(C2=Nc3ccc4c(C(F)(F)F)cc(C(F)(F)F)nc4[n+]3[B-](F)(F)O2)cc1`: the emission maximum (in ClCCl) was determined as 642 nm.

As to `Cc1ccc(-c2ccc(-c3ccc(-c4ccc(C)cc4)cc3/C(=C(/c3ccccc3)c3cc(-c4ccc(C)cc4)ccc3-c3ccc(-c4ccc(C)cc4)cc3)c3ccccc3)cc2)cc1`, the emission maximum (in C1CCOC1) was determined as 498 nm.

Regarding `c1ccc2c(c1)c1ccccc1n2-c1ccc(-c2ccn3nc(-c4ccc(-n5c6ccccc6c6ccccc65)cc4)nc3c2)cc1`, where the note is “in C1CCOC1”, the emission maximum came out at 413 nm.

Under “in Cc1ccccc1”, `COCCC1=Cc2nc1ccc1[nH]c(cc1CCOC)c1nc(c(OC)cc3[nH]c2cc3CCOC)C(CCOC)=C1` had an emission maximum of 690 nm.

For the compound `F[B-]1(F)n2c(-c3ccccc3)cc(-c3ccccc3)c2C(c2ccccc2)=C2C(c3ccccc3)=CC(c3ccccc3)=[N+]21`, the emission maximum (in C1CCOC1) was 597 nm.

For the setting “in ClC(Cl)Cl”, `CC1=CC(C)=[N+]2C1=C(C1=C3C(C)=CC(C)=[N+]3[B-](F)(F)n3c(C)cc(C)c31)c1c(C)cc(C)n1[B-]2(F)F` had an emission maximum of 588 nm.

With `CC(C)(C)c1ccc2c(c1)c1cc(C(C)(C)C)ccc1n2-c1ccc(-n2c3ccc(C(C)(C)C)cc3c3cc(C(C)(C)C)ccc32)c(-c2nccnc2C#N)c1`, the emission maximum was 503 nm (in Cc1ccccc1) and 493 nm (in c1cc(-n2c3ccccc3c3ccccc32)cc(-n2c3ccccc3c3ccccc32)c1).

In turn, `CC1=C2C=CC=[N+]2[B-](F)(F)n2cccc21` displayed an emission maximum (in CCCCCC) of 506 nm, an emission maximum (in CO) of 503 nm and an emission maximum (in ClCCl) of 507 nm.

`COc1ccc(-c2cc3c(ccc4sc5ccc6sccc6c5c43)s2)cc1` yielded an emission maximum (in ClCCl) of 409 nm.

As to `CCCCCCCCC1(CCCCCCCC)c2cc(-c3ccccc3)ccc2-c2ccc(-c3ccccc3)cc21`, under “in ClC(Cl)Cl”, the emission maximum is on record as 361 nm.

`Oc1ccc2ccccc2c1-c1nc2c(c3c1-c1ccccc1CC3)-c1ccccc1CC2` had an emission maximum (in ClCCl) of 405 nm.

The compound `CC1=C(C#Cc2ccc(B(c3c(C)cc(C)cc3C)c3c(C)cc(C)cc3C)cc2)C(C)=[N+]2C1=C(c1ccccc1)c1c(C)c(C#Cc3ccc(B(c4c(C)cc(C)cc4C)c4c(C)cc(C)cc4C)cc3)c(C)n1[B-]2(F)F` gave an emission maximum (in ClCCl) of 602 nm.

Turning to `C#CCN1C(=O)/C(=C/c2cc(OC(C)C)ccc2OC(C)C)N=C1C`, the emission maximum runs as follows: (in C1COCCO1) 476 nm; (in CC#N) 508 nm; (in CC(C)=O) 487 nm; (in CCCCCC) 440 nm; (in CCCCO) 516 nm; (in CCCO) 521 nm. The emission maximum is, setting by setting: (in CCO) 523 nm; (in CCOC(C)=O) 475 nm; (in CN(C)C=O) 500 nm; (in CO) 538 nm; (in CS(C)=O) 510 nm.

With `O=C1Nc2ccccc2/C1=C/C(=O)c1ccc(O)cc1`, the emission maximum runs as follows: (in C1CCCCC1) 384 nm; (in C1COCCO1) 399 nm; (in CC#N) 401 nm; (in CC(C)(C)O) 406 nm; (in CC(C)O) 407 nm; (in CCCCCC) 382 nm. For the same compound, the emission maximum is 407 nm (in CCCCO); 398 nm (in CCOC(C)=O); 401 nm (in CN(C)C=O); 408 nm (in CO); 400 nm (in ClCCl); 424 nm (in O).

Consider `CC(C)(C)c1ccc(-c2cc3c4c(c2)CCc2cc(-c5ccc(C(C)(C)C)cc5)cc(c2-4)CC3)cc1`, for which the emission maximum by setting is: (in C1CCCCC1) 382.09 nm; (in C1CCOC1) 384.87 nm; (in CC#N) 383.16 nm; (in CCCCCC) 381.02 nm; (in CCO) 382.73 nm; (in CN(C)C=O) 386.79 nm. Also, the emission maximum (in CO) is recorded as 381.87 nm, the emission maximum (in ClC(Cl)Cl) was determined as 387.93 nm and the emission maximum (in ClCCl) stood at 386.36 nm.

For the compound `CC(C)(C)c1ccc2c(c1)c1cc(C(C)(C)C)ccc1n2-c1ccc(C#Cc2ccc3c4ccc(C#Cc5ccc(C=O)cc5)cc4n(-c4ccc(C(F)(F)F)cc4)c3c2)cc1`, the emission maximum (in ClCCl) is given as 422 nm.

The compound `S=P1(c2ccccc2)c2cccc3ccc4ccc1n4c23` (stereo unspecified) showed an emission maximum (in ClCCl) of 490 nm.

For the setting “in C1CCCCC1”, `COc1ccc(-c2ccc(-c3ccccc3)cc2)cc1` showed an emission maximum of 353 nm.

For `Cc1cc2c(ccc3c[n+](C)c(C)cc32)c[n+]1C`, the emission maximum (in CC#N) is 419 nm.

As to `CC1=N/C(=C\c2ccccc2N(C)C)C(=O)N1C`, the emission maximum reads like this: (in C1CCCCC1) 472 nm; (in C1CCOC1) 519 nm; (in CC#N) 536 nm; (in CO) 522 nm; (in CS(C)=O) 552 nm; (in ClCCl) 535 nm. For the setting “in O”, the emission maximum was 426 nm.

As to `Cc1cc(C)c(C2=C3C=CC=[N+]3[B-]3(c4ccc5ccc6cccc7ccc4c5c67)Oc4cc(O)cc5c6ccc(C)cc6c6cc2n3c6c45)c(C)c1` (stereo unspecified), the emission maximum (in ClC(Cl)Cl) turned out to be 670 nm.

Turning to `CCCN1/C(=C/C=C(/C=C/C2=[N+](CCC)c3ccccc3C2(C)C)c2ccncc2)C(C)(C)c2ccccc21`, the emission maximum (in CO) is on record as 648 nm, the emission maximum (in CS(C)=O) came to 655 nm and the emission maximum (in O) amounted to 658 nm.

`O=c1cccc2n1C[C@@H]1CNC[C@H]2C1` gave an emission maximum (in CC#N) of 380 nm.

For `c1cc2c([nH]c3c4[nH]c5sccc5c4c4nsnc4c23)s1`, the emission maximum by setting is: (in C1CCOC1) 511 nm; (in CCOC(C)=O) 510 nm; (in CN(C)C=O) 547 nm; (in Cc1ccccc1) 496 nm; (in ClCCl) 533 nm.

Compound `c1ccc(-c2ccc(-c3ccc(N(c4ccccc4)c4ccccc4)cc3)c3nsnc23)cc1` registered an emission maximum (in C1CCOC1) of 578 nm, an emission maximum (in CC(C)=O) of 619 nm, an emission maximum (in CCCCCC) of 526 nm and an emission maximum (in CCOCC) of 558 nm.

`COC(=O)/C(C#N)=c1\s/c(=c2/s/c(=C(/C#N)C(=O)OC)c3cc(-c4ccc(F)cc4)sc23)c2sc(-c3ccc(F)cc3)cc12`: the emission maximum (in Cc1ccccc1) is on record as 640 nm.

The compound `Cc1c2c(c(C)c3ccccc13)C1=C2C=CC2Nc3ccccc3NC12` (stereo unspecified) displayed an emission maximum (in ClC(Cl)Cl) of 544 nm.

Take `O=C([O-])c1ccc(C(=O)[O-])c(C2=c3cc4c5c(c3Oc3c2cc2c6c3CCCN6CCC2)CCC[N+]=5CCC4)c1`: the emission maximum reads like this: (in CCO) 596 nm; (in O) 603 nm.

In turn, `C(=C\c1ncccn1)/c1ccc(-c2ccc(N(c3ccccc3)c3ccccc3)cc2)cc1` showed an emission maximum (in ClCCl) of 530 nm.
